Where two headings read alike, the source gives them in different places. Bridge positions count the residues as written; N and C are the ends. Square brackets hold non-standard residues; d marks the D form. Peptide text beside a SMILES is read from it. Phe(4-CF3) = N[C@@H](Cc1ccc(C(F)(F)F)cc1)C(=O)O; Dmt = Cc1cc(O)cc(C)c1C[C@H](N)C(=O)O
Key:
[1] = system: Male balb/c mice; experiment: Histology, microscopic total damage score of distal colon (prevention model of colitis); format: in vivo; settings: 1 mg/kg
Method: Distal colon sections from the preventive mouse model of colitis were stapled flat, mucosal side-up, onto cardboard strips and fixed in 10% formalin for 24 h at 4 °C. Samples were dehydrated, embedded in paraffin, sectioned at 5 µm, and mounted onto slides. The sections were then stained with haematoxylin and eosin and Motic AE31 microscope (Ted Pella, Sweden) photographs were taken using a digital imaging system consisting of a digital camera (Moticam 2300, Ted Pella, Sweden) and image analysis software (Motic Images Plus 2.0, Germany).
The microscopic total damage score was assessed using the following parameters: the goblet cell depletion (presence = 1, absence = 0), crypt abscesses (presence = 1, absence = 0), the destruction of mucosal architecture (normal = 1, moderate = 2, extensive = 3), the extent of muscle thickening (normal =1, moderate = 2, extensive = 3), and the presence and degree of cellular infiltration (normal = 1, moderate = 2, transmural = 3).

[2] = system: Male balb/c mice; experiment: Prevention mouse model of TNBS-induced colitis (macroscopic damage, MPO activity); format: in vivo; settings: 1 mg/kg i.p. once daily
Method: (§1) Male balb/c mice (Animal Facility of Nofer Institute of Occupational Medicine, Lodz, Poland) weighing 22–25 g were used to determine the anti-inflammatory and anti-nociceptive activity of cyclopeptides after i.p. administration. All procedures and protocols used in this study were approved by the Local Ethical Committee for Animal Research (protocol number: 20/ŁB708/2014, 26 May 2014). The study was carried out in accordance with the recommendations described in the Guide for the Care and Use of Laboratory Animals of the Medical University of Lodz, Poland. All experimental procedures were performed in accordance with the current guidelines for the care of laboratory animals (including the use of the 3Rs procedures) and in accordance with the ARRIVE guidelines.
(§2) The experimental colitis was induced by intracolonic (i.c.) administration of 2,4,6-trinitrobenzenesulfonic acid (TNBS). Mice were anesthetized with isoflurane (Aerrane, Baxter, Deerfield, IL) and TNBS at the dose of 4 mg per mouse (dissolved in 30% EtOH in saline) in the final volume of 150 µl, was injected into the colon through a catheter inserted 3 cm proximally from the anus. Mice were then maintained in an inclined position for 1 min to ensure the proper distribution of the inductor in the colon. Next, recovery was allowed with food and water supplied. Control animals received vehicle alone (30% ethanol in saline; TNBS replaced with equivolume water).
In the prevention mouse model of colitis, F-81 was injected intraperitoneally (i.p.) at the dose of 1 mg/kg in saline, in the volume of 100 µl, once daily, for 3 days, 15 min prior to TNBS administration. Mice were weighted daily and monitored for clinical symptoms of colitis, including diarrhoea and bloody stool. On day 4, mice were sacrificed by rapid cervical dislocation and the macroscopic damage score was assessed.
(§3) To perform the macroscopic damage score, the colon was removed immediately after euthanasia, opened longitudinally, rinsed with phosphate buffered saline (PBS), and examined using an established semiquantitative scoring system by adding individual scores for ulcer, colonic shortening, wall thickness, and the presence of haemorrhage, faecal blood, and diarrhoea, as described before. For scoring ulcer and colonic shortening the following scale was used: ulcer: 0.5 points for each 0.5 cm; shortening of the colon: 1 point for >15%, 2 points for >25% (based on a mean length of the colon in untreated mice). The wall thickness was measured in millimetres, a thickness of n mm corresponded to n scoring points. The presence of haemorrhage, faecal blood, or diarrhoea increased the score by 1 point for each additional feature.
(§4) The colon fragments (20–30 mg) were gently isolated from mice after total macroscopic damage score assessment, immediately washed with PBS, and homogenized in hexadecyltrimethylammonium bromide (HTAB) buffer (0.5% HTAB in 50 mM potassium phosphate buffer, pH 6.0; 50 mg of tissue/ml) using Ika Ultra Turrax Disperser T25 Digital 2 (Sigma Aldrich, Poznan, Poland). The homogenates were centrifuged (20 min, 13,200g, 4 °C) and the supernatants were transferred to the new test tubes. Then, 7 µl portions of supernatants were added on a 96-well plate, followed by 200 µl of 50 mM potassium phosphate buffer (pH = 6.0), containing 0.167 mg/ml of O-dianisidine hydrochloride and 0.05 µl of 1% H2O2. The absorbance was measured at 450 nm after 30 and 60 s (iMARK Microplate Reader, Biorad, UK). All measurements were done in triplicates.
(§5) The MPO activity was expressed in units/g of a wet tissue. One unit is determined as a quantity of enzyme able to convert 1 µmol of H2O2 to water in 1 min at room temperature. MPO activity units were calculated from the standard curve using purified peroxidase enzyme.

[3] = for BBB permeability Pe ± SD: brain polar lipid extract, 200 µM, 4 h, room temperature; for Classification (BBB permeation): classified by Pe
Method: Parallel Artificial Membrane Permeability Assay (PAMPA) was performed using Multiscreen Filter Plate and Multiscreen Transport Receiver Plate (Merck Millipore, Warsaw, Poland). Tested, as well as reference compounds, were dissolved in 0.1 M PBS buffer containing 20% of ethanol, to the final concentration of 200 µM. A 300 µl aliquots of 0.1 M PBS solution (pH = 7.4) was dispensed into the wells of the […]. Then 1% n-dodecane solution of the brain polar lipid extract (Avanti Polar Lipids; Sigma Aldrich, Poznan, Poland) was prepared to investigate the blood–brain barrier (BBB) permeability. Aliquots of the obtained lipid solutions (5 µl) were dispensed on the membranes of wells of the donor plate and left to dry. […] A complete system, consisting of the receiver plate with inserted donor plate, was incubated at room temperature for 4 h, shaking at 40 g, to guarantee good solvent mixing.
The ability of the tested compounds to permeate the artificial membranes was classified according to the literature[33] as:
Artificial membrane permeability was assessed in the PAMPA assay and the permeability coefficient (Pe) was calculated from the following equation: Pe=C×-ln1-×Ca/Cr where C=Vd ×Va /(Vd+Va)×p×t
Membrane retention was analysed using mass balance between a compound left in the donor and acceptor compartments and calculated using the following equation: MB=Ca×Va+(Cd×Vd)/Cinitial×Vd where

[4] = system: kappa-opioid receptor; set-up: method as in PMID 26005537, PMID 25047937; settings: cited from earlier work
[5] = system: Male CD-1 mice; experiment: Hot-plate test after i.c.v. administration; format: in vivo; settings: for ED50 (jumping response): mice
Source text: Male CD-1 mice (Harlan, Italy) weighing 25–30 g were used to determine the anti-nociceptive activity of the cyclopeptides in the hot-plate test after i.c.v. injection. Animal studies and research protocols were approved by the Service for Biotechnology and Animal Welfare of the Istituto Superiore di Sanità and authorized by the Italian Ministry of Health, according to Legislative Decree 26/14 (protocol number: 198/2013-B, 14 August 2013), which implemented the European Directive 2010/63/EEC on laboratory animal protection. Animal welfare was routinely checked by veterinarians from the Service for Biotechnology and Animal Welfare.
The hot-plate test was performed as described earlier. The intracerebroventricular (i.c.v.) injections were performed in a volume of 10 µl/animal, in the left brain ventricle of manually immobilized mice with a Hamilton microsyringe (50 µl) connected to a needle (diameter 0.5 mm). Peptides were also administrated in mice intravenously (i.v.) in a volume of 1 ml/kg. All compounds used for i.c.v. and i.v. administration were dissolved in saline. A transparent plastic cylinder (14 cm diameter, 31 cm height) was used to confine the mouse on the heated (55 ± 0.5 °C) surface of the plate. The animals were placed on the hot plate 5 min after the i.c.v. injection of saline (control) or peptides and the latencies to paw licking, rearing and jumping were measured at 5, 10, 20, 30, 45, 60, 90, and 120 min after administration of a peptide. A cut-off time of 240 s was used to avoid tissue injury. The percentage of the maximal possible effect (%MPE) was calculated as: %MPE = (t1 − t0)/(t2 − t0) × 100, where t0: control latency, t1: test latency, and t2: cut-off time. The median antinociceptive dose (ED50) was calculated according to the method of Litchfield and Wilcox[36].

[6] = system: Male balb/c mice; experiment: Semi-chronic model of TNBS-induced colitis (macroscopic damage, MPO activity); format: in vivo
Method: as §1, §2
In the semi-chronic model, the curative potential of F-81 was tested. TNBS was administered on day 0 and from day 3 to day 6 the F-81 treatment (1 mg/kg in saline, 100 µl, i.p) was performed. On day 7, mice were sacrificed and the evaluation of colonic damage was performed.
as §3
as §4, with “Then, 7 µl portions of supernatants were added on a 96-well plate, followed by 200 µl of 50 mM potassium phosphate buffer (pH = 6.0), containing 0.167 mg/ml of O-dianisidine hydrochloride and 0.05 µl of 1% H2O2.” left out, “All measurements were done in triplicates.” left out
as §5

[7] = system: Male balb/c mice; experiment: Mustard oil induced abdominal pain in mice with acute TNBS-induced colitis; format: in vivo; settings: mustard oil i.c., 1 mg/kg i.p., counted for 20 min, control group 29.28 ± 2.52
Method: as §1
To assess the anti-nociceptive effect of F-81 in mice with acute colitis, intestinal inflammation was induced by TNBS instillation three days prior to the experiment. Abdominal pain was induced in inflamed mice by the i.c. injection of 1% mustard oil (MO, allyl isothiocyanate) in 70% EtOH in saline. Mice were separated into clear plastic boxes (20 × 20 × 15 cm) and allowed a 5 min recovery after MO administration. Spontaneous behaviours (licking and stretching the abdomen, squashing of lower abdomen against the floor, and abdominal retraction) were observed and counted for 20 min.

[8] = Kinetic solubility assay; format: physicochemical; settings: PBS buffer, pH 7.4
Method: Kinetic solubility assay was performed using Multiscreen HTS Vacuum Manifold (Merck Millipore, Warsaw, Poland). Compounds for this test were prepared as 10 mM stock solutions in DMSO and diluted in a standard PBS buffer (pH = 7.4), to the final concentrations of 0.5 mM. The solutions were applied into a 96-well filter plate and incubated for 90 min at room temperature, while shaking at 40 g and then filtrated. The concentration of each compound was determined on the basis of the prepared calibration curve using the UV–VIS spectrophotometric method. According to the absorption spectra of the compounds the wavelength used for the measurements was 280 nm for both, C-36 and F-81.

[9] = set-up: method as in PMID 19995587; settings: i.v. ref 35; cited from earlier work
[10] = read-out: Solubility Mean (mg/ml)

**Q.** Which results are given for `Cc1cc(O)cc(C)c1C[C@H](N)C(=O)N[C@@H]1CCCCNC(=O)C[C@@H](C(N)=O)NC(=O)[C@H](Cc2ccc(C(F)(F)F)cc2)NC(=O)[C@H](Cc2ccccc2)NC1=O` [Peptide F-81, Dmt-c[D-Lys-Phe-p-CF3-Phe-Asp]NH2] (H-[Dmt][dK]F[Phe(4-CF3)]D-NH2; lactam 2-5 (inferred))?
**A.** Microscopic score [1]: significantly improved; Macroscopic damage score ([2]; 3 days, TNBS group 5.83): 4.07; Intestinal wall thickness ([2]; TNBS group 1.08 ± 0.12, no difference): 0.95 ± 0.07 mm; Ulcer score ([2]; TNBS group 2.06 ± 0.22): 1.43 ± 0.17; Colon width ([2]; TNBS group 7.91 ± 0.23): 6.09 ± 0.53; Colon length ([2]; TNBS group 8.01 ± 0.39, no difference): 8.23 ± 0.24; Inflammation area ([2]; TNBS group 24.42 ± 2.92): 19.56 ± 2.16; MPO activity ([2]; colon tissue, TNBS group 11.82 ± 1.72): 3.65 ± 0.87 units/g of a wet tissue; BBB permeability Pe ± SD ([3]; PAMPA, pH 7.4): ≤0.58; Classification (BBB permeation) ([3]; PAMPA-BBB): Low permeation (Pe < 2.0 – low permeation); Mean (%) Mass balance ± SD ([3]; PAMPA-BBB, membrane retention): 95.75 ± 1.43%; kappa-affinity [4]: significant kappa-affinity; Anti-nociceptive effect with co-administered naltrindole (delta antagonist) ([5]; F-81 10 ng/animal i.c.v., NTL 1 µg/animal): did not modify; Anti-nociceptive effect with co-administered norbinaltorphimine (kappa antagonist) ([5]; F-81 10 ng/animal i.c.v., nor-BNI 5 µg/animal i.c.v.): did not modify; Anti-nociceptive effect with co-administered β-funaltrexamine (mu antagonist) ([5]; F-81 10 ng/animal i.c.v., β-FNA 1 µg/animal): blocked; Anti-nociceptive potency relative to C-36 ([5]; hot-plate test, i.c.v., from the ED50 values): approximately threefold; ED50 (jumping response) ([5]; hot-plate test, i.c.v.): 17.27 ng; Colon thickness, width, or length versus TNBS-treated group ([6]; 1 mg/kg i.p.): No differences; Macroscopic damage score ([6]; 1 mg/kg i.p. day 3 to day 6, TNBS group 4.15 ± 0.54): 2.18 ± 0.40; Ulcer score ([6]; 1 mg/kg i.p., TNBS group 1.30 ± 0.12): 0.92 ± 0.83; Inflammation area ([6]; 1 mg/kg i.p., TNBS group 18.49 ± 3.95): 12.23 ± 1.56; MPO activity ([6]; colon tissue, 1 mg/kg i.p., TNBS group 8.26 ± 0.15): 7.88 ± 0.24 units/g of a wet tissue; Number of spontaneous pain behaviours [7]: 6.36 ± 1.98; solubility at 90 min ([8]; read-out: Solubility Mean): 345 µM; solubility at 90 min [8, 10]: 0.27 mg/mL

**Q.** Which results are given for `Cc1cc(O)cc(C)c1C[C@H](N)C(=O)N[C@@H]1CCCCNC(=O)C[C@@H](C(N)=O)NC(=O)[C@H](Cc2ccccc2)NC(=O)[C@H](Cc2ccccc2)NC1=O` [Peptide C-36, Dmt-c[D-Lys-Phe-Phe-Asp]NH2] (H-[Dmt][dK]FFD-NH2; lactam 2-5; N-terminus assumed)?
**A.** BBB permeability Pe ± SD ([3]; PAMPA, pH 7.4): ≤0.58; Classification (BBB permeation) ([3]; PAMPA-BBB): Low permeation (Pe < 2.0 – low permeation); Mean (%) Mass balance ± SD ([3]; PAMPA-BBB, membrane retention): 97.87 ± 1.69%; ED50 (jumping response) ([5]; hot-plate test, i.c.v.): 57.78 ng; solubility at 90 min ([8]; read-out: Solubility Mean): ≥ 500 µM; solubility at 90 min [8, 10]: ≥ 0.36 mg/mL

**Q.** Which “Ability to reach the brain after i.v. administration” value [9] does the source give for Tyr-c[D-Lys-Phe-Phe-Asp]NH2 here?
**A.** The value was “could reach the brain after i.v. administration”.

**Q.** For `Cn1c(=O)c2[nH]cnc2n(C)c1=O` [Theophylline, theophylline, reference compound], which “Mean (%) Mass balance ± SD” value ([3]; PAMPA, pH 7.4) is on record?
**A.** The value was 98.21 ± 3.65%.
